Assay results: ChEMBL document CHEMBL5257022, “An integrated overview on pyrrolizines as potential anti-inflammatory, analgesic and antipyretic agents” (Eur J Med Chem, 2016)
Each block holds one compound with its values, some of them ahead of it.

What was measured:
[1] = Toxicity in gastric mucosa of rat assessed as ulcer index at 10 mg/kg; type: organism-based; settings: in vivo
Rattus norvegicus [2] = assay: Antiinflammatory activity in carrageenan induced Sprague-Dawley rat assessed as reduction in edema formation after 3 hrs; type: functional; settings: read-out: ID50 (the source's name)
Mus musculus [3] = species on record: Mus musculus; assay: Analgesic activity in mouse assessed as inhibition of acetic acid-induced writhing response relative to aspirin; type: functional
[4] = target: T1, Prostaglandin G/H synthase 2 (Homo sapiens, UniProt P35354); assay: Inhibition of human COX2
T1 sequence (P35354 whole entry): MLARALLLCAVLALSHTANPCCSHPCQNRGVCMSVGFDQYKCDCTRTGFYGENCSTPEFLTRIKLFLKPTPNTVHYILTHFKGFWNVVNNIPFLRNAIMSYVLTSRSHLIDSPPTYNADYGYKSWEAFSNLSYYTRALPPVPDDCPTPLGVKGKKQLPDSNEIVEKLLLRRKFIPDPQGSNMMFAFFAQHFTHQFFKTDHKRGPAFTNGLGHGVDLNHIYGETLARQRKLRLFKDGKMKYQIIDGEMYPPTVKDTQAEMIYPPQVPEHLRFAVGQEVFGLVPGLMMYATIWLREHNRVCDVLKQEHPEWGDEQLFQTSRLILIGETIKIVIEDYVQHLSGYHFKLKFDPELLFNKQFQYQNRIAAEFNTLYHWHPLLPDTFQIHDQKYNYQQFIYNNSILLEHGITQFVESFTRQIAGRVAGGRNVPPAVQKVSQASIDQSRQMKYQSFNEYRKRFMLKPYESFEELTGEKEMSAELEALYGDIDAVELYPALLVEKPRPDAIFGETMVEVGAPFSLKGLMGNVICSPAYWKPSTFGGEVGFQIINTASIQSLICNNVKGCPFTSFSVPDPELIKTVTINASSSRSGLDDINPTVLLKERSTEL

Rattus norvegicus [5] = assay: Antiinflammatory activity in rat assessed as fold change in inhibition of paw edema relative to phenylbutazone; type: functional
[6] = target: T2, Prostaglandin G/H synthase 1 (Homo sapiens, UniProt P23219); assay: Inhibition of human COX1
T2 sequence (P23219 whole entry): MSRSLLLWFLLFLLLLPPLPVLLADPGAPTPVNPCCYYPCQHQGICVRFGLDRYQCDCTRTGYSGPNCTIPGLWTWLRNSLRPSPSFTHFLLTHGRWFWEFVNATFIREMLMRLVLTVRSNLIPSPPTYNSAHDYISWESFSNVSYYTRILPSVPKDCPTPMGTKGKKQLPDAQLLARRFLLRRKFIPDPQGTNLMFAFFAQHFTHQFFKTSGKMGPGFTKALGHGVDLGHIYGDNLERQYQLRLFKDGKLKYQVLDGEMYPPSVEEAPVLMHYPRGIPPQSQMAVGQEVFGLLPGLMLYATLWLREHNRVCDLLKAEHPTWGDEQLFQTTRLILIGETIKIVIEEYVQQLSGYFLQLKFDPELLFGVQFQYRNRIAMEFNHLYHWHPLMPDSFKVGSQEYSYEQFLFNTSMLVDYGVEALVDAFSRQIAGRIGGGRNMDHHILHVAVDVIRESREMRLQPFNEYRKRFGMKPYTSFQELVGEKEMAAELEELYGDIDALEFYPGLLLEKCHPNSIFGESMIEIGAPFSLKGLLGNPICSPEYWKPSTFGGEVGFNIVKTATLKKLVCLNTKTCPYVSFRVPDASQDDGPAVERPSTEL

Rattus norvegicus [7] = assay: Antiinflammatory activity in rat assessed as inhibition of paw edema; type: functional
[8] = Gastrointestinal toxicity in rat assessed as ulcer index at 20 mg/kg, po; type: organism-based; settings: in vivo
[9] = target: T3, Polyunsaturated fatty acid 5-lipoxygenase (Homo sapiens) (UniProt P09917); assay: Inhibition of 5-LOX in human PMNL at 10 uM relative to control; type: cell-based
T3 sequence (whole entry): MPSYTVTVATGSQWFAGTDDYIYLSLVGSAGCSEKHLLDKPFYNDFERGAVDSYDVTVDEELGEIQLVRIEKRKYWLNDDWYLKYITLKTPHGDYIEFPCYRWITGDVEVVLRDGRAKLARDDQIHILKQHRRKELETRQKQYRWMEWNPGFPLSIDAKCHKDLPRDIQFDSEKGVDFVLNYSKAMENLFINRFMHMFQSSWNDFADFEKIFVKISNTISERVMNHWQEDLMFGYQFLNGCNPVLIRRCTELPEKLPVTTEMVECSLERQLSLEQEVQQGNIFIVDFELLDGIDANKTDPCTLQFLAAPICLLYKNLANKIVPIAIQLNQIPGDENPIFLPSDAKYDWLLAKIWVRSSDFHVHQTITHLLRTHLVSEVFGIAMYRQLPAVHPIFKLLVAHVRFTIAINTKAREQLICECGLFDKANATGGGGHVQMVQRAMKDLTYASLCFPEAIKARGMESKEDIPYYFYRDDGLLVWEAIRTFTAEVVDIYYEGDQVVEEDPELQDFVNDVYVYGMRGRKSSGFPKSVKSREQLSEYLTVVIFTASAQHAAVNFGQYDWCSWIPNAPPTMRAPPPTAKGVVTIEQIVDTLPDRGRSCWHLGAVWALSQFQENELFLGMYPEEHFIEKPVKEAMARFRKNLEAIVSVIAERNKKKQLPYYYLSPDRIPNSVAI

[10] = target: T4, Prostaglandin G/H synthase 1 (Bos taurus) (UniProt O62664); assay: Inhibition of COX1 in bovine thrombocyte at 10 uM relative to control
T4 sequence (whole entry): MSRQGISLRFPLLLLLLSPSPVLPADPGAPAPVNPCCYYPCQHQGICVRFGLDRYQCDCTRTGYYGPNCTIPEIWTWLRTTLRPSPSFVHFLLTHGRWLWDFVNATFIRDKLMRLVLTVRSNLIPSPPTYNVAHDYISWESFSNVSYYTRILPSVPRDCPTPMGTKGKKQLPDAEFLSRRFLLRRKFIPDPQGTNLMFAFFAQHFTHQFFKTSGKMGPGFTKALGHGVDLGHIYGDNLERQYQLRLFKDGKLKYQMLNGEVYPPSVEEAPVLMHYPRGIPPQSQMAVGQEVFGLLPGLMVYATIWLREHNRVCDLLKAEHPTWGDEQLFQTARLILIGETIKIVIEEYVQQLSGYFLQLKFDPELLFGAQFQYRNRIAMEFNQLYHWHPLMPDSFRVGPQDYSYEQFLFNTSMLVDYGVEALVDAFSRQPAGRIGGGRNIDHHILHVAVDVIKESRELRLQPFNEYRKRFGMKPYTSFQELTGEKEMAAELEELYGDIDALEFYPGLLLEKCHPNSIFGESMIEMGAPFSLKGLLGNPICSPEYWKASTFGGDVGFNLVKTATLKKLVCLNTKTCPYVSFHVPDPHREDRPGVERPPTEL

[11] = target: T1, Prostaglandin G/H synthase 2; assay: Inhibition of COX2 (unknown origin)
[12] = target: T5, Polyunsaturated fatty acid 5-lipoxygenase (Homo sapiens, UniProt P09917); assay: Inhibition of 5-LOX (unknown origin)
T5 sequence (P09917 whole entry): T3 sequence (whole entry)

[13] = Drug excretion in human urine assessed as glucuronide conjugate level; type: ADME
[14] = Toxicity in gastric mucosa of rat assessed as ulcer index at 400 mg/kg; type: organism-based; settings: in vivo
[15] = Drug excretion in human urine assessed as keto ro lac level; type: ADME
[16] = Drug excretion in human urine assessed as 4-hydroxy keto ro lac level; type: ADME
[17] = Toxicity in gastric mucosa of rat assessed as ulcer index at 200 mg/kg; type: organism-based; settings: in vivo
Rattus norvegicus [18] = assay: Antiinflammatory activity against carrageenan-induced paw edema in Wistar rat assessed as inhibition of edema at 30 mg/kg, po for 1 hr prior to carrageenan induction; type: functional
Mus musculus [19] = assay: Analgesic activity in ddY mouse assessed as inhibition of acetic acid induced writhing at 30 mg/kg, po for 30 mins followed by acetic acid injection and measured after 5 to 10 mins; type: functional; set-up: scale not given: the % may be the effect or the level left; settings: time 35-40 min
[20] = target: T2, Prostaglandin G/H synthase 1; assay: Inhibition of COX1 (unknown origin)
Oryctolagus cuniculus = species on record: Oryctolagus cuniculus; assay: Inhibition of collagen-induced platelet aggregation in rabbit concha artery blood at 10 uM; type: functional

Structure (SMILES): COc1ccc2c(c1)c(CC(=O)O)c(C)n2C(=O)c1ccc(Cl)cc1 [INDOMETHACIN]
- UI [1]: 14

Structure (SMILES): O=C(c1ccccc1)c1ccc2n1CCC2C(=O)O (racemic) [KETOROLAC]
- ED50 (Rattus norvegicus [2]): 0.08 mg/kg
- fold change (FC) (Mus musculus [3]): 350
- IC50 [4]: 3.5 µM
- fold change (FC) (Rattus norvegicus [5]): 36
- IC50 [6]: 1.23 µM

Structure (SMILES): N#Cc1c(N)c(C(=O)Nc2ccccc2Cl)n2c1CCC2
- inhibition (INH) (Rattus norvegicus [7]): 36.1%
- UI [8]: 9.2

Structure (SMILES): O=C(c1ccccc1)c1ccc2n1CC[C@@H]2C(=O)O
- ED50 (Rattus norvegicus [2]): 0.02 mg/kg
- IC50 [4]: 1.46 µM
- IC50 [6]: 0.46 µM

- IP [9]: 0%
- IP [10]: 0%
- IC50 [11]: 1.8 µM
Structure (SMILES): Cc1ccc(-c2cn3c(c2-c2ccccc2)CCC3)s1

- IP [10]: 25%
- IC50 [12]: 8.4 µM
Structure (SMILES): Brc1ccc(-c2cn3c(c2-c2ccccc2)CCC3)s1

- IP [10]: 20%
- IC50 [12]: 10 µM
Structure (SMILES): c1ccc(-c2c(-c3ccco3)cn3c2CCC3)cc1

- Drug excretion [13]: 28%
- Drug excretion [15]: 60%
- Drug excretion [16]: 12%
Structure (SMILES): Cc1ccc(NCC2Cn3cccc3C2=O)cc1 (configuration not stated)
- UI [14]: 0

Structure (SMILES): CC(C)Cc1ccc(C(C)C(=O)O)cc1 (configuration not stated) [IBUPROFEN]
- UI [17]: 13.3

Structure (SMILES): Cc1ccccc1NC(=O)c1c2[nH]cnc(=O)c2c2n1CCC2
- inhibition (INH) (Rattus norvegicus [7]): 28.8%
- UI [8]: 17.4

Structure (SMILES): O=C(c1ccccc1)c1ccc2n1CC[C@H]2C(=O)O
- ED50 (Rattus norvegicus [2]): 4 mg/kg
- IC50 [4]: > 100 µM
- IC50 [6]: > 100 µM

Structure (SMILES): Cc1ccccc1NC(=O)c1c(N)c(C#N)c2n1CCC2
- inhibition (INH) (Rattus norvegicus [7]): 31.6%
- UI [8]: 11.3

Structure (SMILES): O=C(O)C1CCn2c1cc(-c1ccc(Cl)cc1)c2-c1ccc(Cl)cc1 (configuration not stated)
- inhibition in vivo at 30 mg/kg (Rattus norvegicus [18]): 52.3%
- Activity (Mus musculus [19]): 81.3%

- IP [9]: 0%
- IP [10]: 0%
Structure (SMILES): CS(=O)(=O)Nc1ccc(-c2cn3c(c2-c2ccc(Cl)cc2)CCC3)cc1

- IC50 [20]: 10 µM
- IP [10]: 58%
Structure (SMILES): O=C(O)/C=C/c1c(-c2ccc(CCc3ccccc3)cc2)c(-c2ccccc2)c2n1CCC2

- IP [9]: 0%
- IP [10]: 28%
- IC50 [11]: 0.1 µM
Structure (SMILES): CSc1ccc(-c2cn3c(c2-c2ccc(F)cc2)CCC3)cc1

Structure (SMILES): O=C(Nc1ccccc1)C1CCn2c1cc(-c1ccc(Cl)cc1)c2-c1ccc(Cl)cc1 (configuration not stated)
- inhibition in vivo at 30 mg/kg (Rattus norvegicus [18]): 37.4%
- inhibition at 10 µM (Oryctolagus cuniculus): 78%

- IP [10]: 25%
- IC50 [12]: 10 µM
- IC50 [11]: 0.03 µM
Structure (SMILES): CS(=O)(=O)c1ccc(-c2cn3c(c2-c2ccccc2)CCC3)cc1

- IC50 [12]: 10 µM
Structure (SMILES): c1ccc(-c2c(-c3cccs3)cn3c2CCC3)cc1

Structure (SMILES): COc1ccc(-c2c(-c3ccc(Cl)cc3)cc3n2CCC3C(=O)O)cc1 (configuration not stated)
- inhibition in vivo at 30 mg/kg (Rattus norvegicus [18]): 48.2%
- Activity (Mus musculus [19]): 87.3%

Structure (SMILES): O=C(Nc1ccccc1Cl)c1c2[nH]cnc(=O)c2c2n1CCC2
- inhibition (INH) (Rattus norvegicus [7]): 30.3%
- UI [8]: 15.1

- IP [10]: 10%
- IC50 [12]: 3.4 µM
- IC50 [11]: 3.6 µM
Structure (SMILES): CS(=O)(=O)Nc1ccc(-c2cn3c(c2-c2ccccc2)CCC3)cc1
